Several values for one entry are separate records, joined by “and”; a condition that tells them apart may be missing. Identical values can stand only once. One block for each compound: values may come before it.
Columns and labels:
[1] = system: monkey primary hepatocytes; experiment: Metabolic disposition of [^14C]-Compound 1 and [^14C]-2′-C-methyl guanosine in monkey primary hepatocytes (incubation medium, cellular extracts, nucleotide levels); assay type: in vitro ADME, Cynomolgus monkey; details: for decrease in Compound 1 medium levels: monkey hepatocytes; for decrease in Compound 1 medium levels / % Residual [^14C]-Compound 1 in incubation medium: 10 μM
Protocol: (§1) Primary hepatocytes: Freshly isolated cells from animal and human liver were obtained in suspension on ice. Cells were pelleted by centrifugation at 70-75×g (rat) or 95-90×g (monkey and human) and resuspended at 0.8 million cells per mL of platting medium (William's E supplemented with 5% FBS, 0.5% penicillin-streptomycin, 1% L-glutamine, 4 μg/mL insulin and 1 μM dexamethasone). Multi-well collagen I-coated plates (rat tail collagen type I; 12- or 6-well) were then seeded by addition of 1 mL (12-well; 0.8 million cells/well) or 2 mL (6-well; 1.6 million cells/well) of cell suspension. The plates were gently shaken to evenly distribute the cells and placed in an incubator at 37° C. for approximately 4 to 6 hours to allow cells to attach. Once cells were attached, the platting medium was removed and replaced with hepatocyte culture medium (William's E supplemented with penicillin-streptomycin, 1% L-glutamine, 1% insulin-transferrin-selenium and 0.1 μM dexamethasone). Cells were left overnight in an incubator at 37° C. to acclimatize to culture and the medium.
(§2) Hepatocyte incubations with radiolabeled Compound 1 and 2′-C-methyl guanosine, both labeled in the C-8 position of the guanine moiety, were conducted at a final volume of 2.0 mL hepatocyte culture medium/well ([…]). Culture medium from overnight incubation of cells was removed and replaced with fresh medium, pre-warmed to 37° C., containing 1 or 10 μM [^14C]-Compound 1 ([…]) or [^14C]-2′-C-methyl guanosine (127 DPM/μmol) from a stock solution in DMSO (final DMSO concentration was 0.1%) or 50% ethanol (final ethanol concentration was 0.2%). After 1, 4, 8 and 24 hours, 0.5-1.0 mL of incubation medium was removed and stored at −20° C. until analysis (described below). The remaining medium was discarded and cell monolayers were carefully washed two times with ice-cold PBS. Following the last wash, all PBS was carefully removed and 1.0 mL of extraction solution (ice-cold 70% methanol) added. Cells were scrapped off and suspended in the extraction solution, transferred to 2 mL polypropylene microfuge tubes and intracellular contents extracted overnight at −20° C.
(§3) Preliminary identification of putative metabolites was conducted by comparing the retention time of observed metabolites in incubation medium and cellular extracts with retention times obtained with chemically synthesized standards using the chromatography conditions described below. Further identification of 2′-C-methyl guanosine nucleotides (mono-, di- and triphosphate) was carried out by incubating cellular extract samples with alkaline phosphatase (10 units for 60 min at 37° C.) and comparing the HPLC retention times of the resulting nucleosides with that of authentic 2′-C-methyl guanosine.
(§4) Cellular extracts were prepared by centrifugation at 16,000 RCF using an Eppendorf microcentrifuge (Eppendorf, Model 5415D) for 10 min to remove cellular debris. An aliquot of 5-10 μL of the supernatant was added to 5 mL of EcoLite™ (MP, Irvine, Calif.) liquid scintillation cocktail and radioactivity measured by liquid scintillation counting (LSC) using a Beckman Coulter LS6500 multipurpose liquid scintillation counter (Beckman Instruments, Fullerton, Calif.). The remaining sample was then dried using a Labconco refrigerated centrivap concentrator (Labconco, Kansas City, Mo.). Dry extracts were reconstituted in 120 μL of HPLC-grade water and centrifuged at 16,000 RCF using an Eppendorf microcentrifuge for 10 min. Prior to HPLC analysis (described below), radioactivity of the concentrated extracts was measured by LSC using 5 μL aliquots. Extraction recovery was then determined by comparing total radioactivity in extracts before and after drying. The remaining extract was then analyzed by HPLC with online radioactivity detection using a Flow Scintillation Analyzer Radiomatic™ 515TR. Radioactivity in the separated components was quantified by integrating the peaks using Flo-One™ Software (Perkin Elmer Life Sciences). […]

rat primary hepatocytes = experiment: Metabolic disposition of [^14C]-Compound 1 and [^14C]-2′-C-methyl guanosine in rat primary hepatocytes (incubation medium, cellular extracts, nucleotide levels); assay type: in vitro ADME, Sprague Dawley rat
Protocol: as §1, §2, §3, §4

[2] = rat hepatocytes (Rs448, Rs458), 10 μM [^14C]-Compound 1, 24 h
[3] = rat hepatocytes (Rs458), 1 μM [^14C]-Compound 1, 1 h
[4] = rat hepatocytes (Rs458), 1 μM [^14C]-Compound 1, 8 h
[5] = rat hepatocytes (Rs458), 1 μM [^14C]-Compound 1, 24 h

SMILES: CC(C)(CO)C(=O)SCCOP(=O)(NCc1ccccc1)OC[C@H]1O[C@@H](n2cnc3c(=O)[nH]c(N)nc32)[C@](C)(O)[C@@H]1O (mixture of isomers) [Compound 1, 3-hydroxy-2,2-dimethyl-thiopropionic acid S-(2-{[(2R,3R,4R,5R)-5-(2-amino-6-oxo-1,6-dihydro-purin-9-yl)-3,4-dihydroxy-4-methyl-tetrahydro-furan-2-ylmethoxy]-benzylamino-phosphoryloxy}-ethyl) ester]
metabolites observed in cellular extracts (% of total radioactivity) ([1]; monkey hepatocytes (Cy230, Cy234), 10 μM [^14C]-Compound 1, 8 h): BLD
metabolites observed in cellular extracts (% of total radioactivity) ([1]; monkey hepatocytes (Cy230, Cy234), 10 μM [^14C]-Compound 1, 24 h): undetected and BLD
metabolites observed in cellular extracts (% of total radioactivity) ([1]; monkey hepatocytes (Cy234), 10 μM [^14C]-Compound 1, 4 h): 3.03%
decrease in Compound 1 medium levels ([1]; 8 hours): about 40%
decrease in Compound 1 medium levels ([1]; 24 hours): 77%
% Residual [^14C]-Compound 1 in incubation medium ([1]; monkey primary hepatocytes (n=2), 0 h): 97% and 91%
% Residual [^14C]-Compound 1 in incubation medium ([1]; monkey primary hepatocytes (n=2), 1 h): 95% and 67%
% Residual [^14C]-Compound 1 in incubation medium ([1]; monkey primary hepatocytes (n=2), 8 h): 63% and 61%
% Residual [^14C]-Compound 1 in incubation medium ([1]; monkey primary hepatocytes (n=2), 24 h): 16% and 31%
% Residual [^14C]-Compound 1 in incubation medium ([1]; monkey primary hepatocytes, 4 h): 66%
metabolites observed in cellular extracts (% of total radioactivity) (rat primary hepatocytes; rat hepatocytes (Rs448, Rs458), 10 μM [^14C]-Compound 1, 1 h, listed as Compd 1): 15.0% and 19.7%
metabolites observed in cellular extracts (% of total radioactivity) (rat primary hepatocytes; rat hepatocytes (Rs448, Rs458), 10 μM [^14C]-Compound 1, 4 h, listed as Compd 1): 3.86% and 4.02%
metabolites observed in cellular extracts (% of total radioactivity) (rat primary hepatocytes; rat hepatocytes (Rs448, Rs458), 10 μM [^14C]-Compound 1, 8 h, listed as Compd 1): 1.20% and 0.95%
metabolites observed in cellular extracts (% of total radioactivity) (rat primary hepatocytes; [2]): undetected
metabolites observed in cellular extracts (% of total radioactivity) (rat primary hepatocytes; rat hepatocytes (Rs448, Rs458), 10 μM [^14C]-Compound 1, 24 h, listed as Compd 1): BLD
metabolites observed in cellular extracts (% of total radioactivity) (rat primary hepatocytes; [3]): 12.3%
metabolites observed in cellular extracts (% of total radioactivity) (rat primary hepatocytes; [4]): BLD
metabolites observed in cellular extracts (% of total radioactivity) (rat primary hepatocytes; [5]): BLD
reduction in Compound 1 medium levels (rat primary hepatocytes; rat hepatocytes, 1 μM, 8 hours): approximately 79%
decrease in Compound 1 medium levels (rat primary hepatocytes; rat hepatocytes, 10 μM, 4 hours): ~50%
% Residual [^14C]-Compound 1 in incubation medium (rat primary hepatocytes; rat primary hepatocytes (n=1), 1 μM, 0 h): 99%
% Residual [^14C]-Compound 1 in incubation medium (rat primary hepatocytes; rat primary hepatocytes (n=1), 1 μM, 1 h): 89%
% Residual [^14C]-Compound 1 in incubation medium (rat primary hepatocytes; rat primary hepatocytes (n=1), 1 μM, 8 h): 21%
% Residual [^14C]-Compound 1 in incubation medium (rat primary hepatocytes; rat primary hepatocytes (n=1), 1 μM, 24 h): 0%
% Residual [^14C]-Compound 1 in incubation medium (rat primary hepatocytes; rat primary hepatocytes (n=2), 10 μM, 0 h): 95% and 97%
% Residual [^14C]-Compound 1 in incubation medium (rat primary hepatocytes; rat primary hepatocytes (n=2), 10 μM, 1 h): 91% and 93%
% Residual [^14C]-Compound 1 in incubation medium (rat primary hepatocytes; rat primary hepatocytes (n=2), 10 μM, 4 h): 48% and 55%
% Residual [^14C]-Compound 1 in incubation medium (rat primary hepatocytes; rat primary hepatocytes (n=2), 10 μM, 8 h): 18% and 32%
% Residual [^14C]-Compound 1 in incubation medium (rat primary hepatocytes; rat primary hepatocytes (n=2), 10 μM, 24 h): 0%

metabolites observed in medium (% of total radioactivity) ([1]; monkey hepatocytes (lot Cy234), 10 μM [^14C]-Compound 1, 4 h): BLD
metabolites observed in medium (% of total radioactivity) ([1]; monkey hepatocytes (lots Cy230, Cy234), 10 μM [^14C]-Compound 1, 0 h): BLD
metabolites observed in medium (% of total radioactivity) ([1]; monkey hepatocytes (lots Cy230, Cy234), 10 μM [^14C]-Compound 1, 1 h): BLD
metabolites observed in medium (% of total radioactivity) ([1]; monkey hepatocytes (lots Cy230, Cy234), 10 μM [^14C]-Compound 1, 24 h): 3.1% and 0.9%
metabolites observed in cellular extracts (% of total radioactivity) (rat primary hepatocytes; rat hepatocytes (Rs448, Rs458), 10 μM [^14C]-Compound 1, 8 h): BLD
metabolites observed in cellular extracts (% of total radioactivity) (rat primary hepatocytes; [2]): BLD
metabolites observed in medium (% of total radioactivity) (rat primary hepatocytes; rat hepatocytes (Rs458), 1 μM [^14C]-Compound 1, 0 h): BLD
metabolites observed in medium (% of total radioactivity) (rat primary hepatocytes; [3]): BLD
metabolites observed in medium (% of total radioactivity) (rat primary hepatocytes; [4]): BLD
metabolites observed in medium (% of total radioactivity) (rat primary hepatocytes; [5]): 1.7% and 1.71%
metabolites observed in medium (% of total radioactivity) (rat primary hepatocytes; rat hepatocytes (lots Rs448, Rs458), 10 μM [^14C]-Compound 1, 0 h): BLD
metabolites observed in medium (% of total radioactivity) (rat primary hepatocytes; rat hepatocytes (lots Rs448, Rs458), 10 μM [^14C]-Compound 1, 1 h): BLD
metabolites observed in medium (% of total radioactivity) (rat primary hepatocytes; rat hepatocytes (lots Rs448, Rs458), 10 μM [^14C]-Compound 1, 4 h): 0.9%
metabolites observed in medium (% of total radioactivity) (rat primary hepatocytes; rat hepatocytes (lots Rs448, Rs458), 10 μM [^14C]-Compound 1, 8 h): 1.4% and 2.1%
metabolites observed in medium (% of total radioactivity) (rat primary hepatocytes; rat hepatocytes (lots Rs448, Rs458), 10 μM [^14C]-Compound 1, 24 h): 1.4% and 1.7%
SMILES: CC(C)(CO)C(=O)SCCOP(N)(=O)OC[C@H]1O[C@@H](n2cnc3c(=O)[nH]c(N)nc32)[C@](C)(O)[C@@H]1O (mixture of isomers) [Compound 3, {9-[(2R)2-C-methyl-β-D-ribo-furanosyl]-guanin}-5′-yl-O-(hydroxy-tert-butyl-S-acyl-2-thioethyl) phosphoramidate]

Reference: patent US20100003217A1, “Compounds and Pharmaceutical Compositions for the Treatment of Viral Infections” (priority 2008, published 2010)
